One series has as its system Akt mRNA. In words: Real-time quantitative PCR of Akt mRNA in HeLa cells. The class given is cell-based, human. The conditions noted are these: 20 μM, 4 h and 8 h. The text has this: A significant validation of the proposed model was sought through specific in-cell biological assays. hNcl is a multifunctional protein involved in a number of cell pathways, depending on its cellular localization. However, one of the most relevant roles probably played by this protein is mRNA chaperone activity carried out through the interaction of the protein RBDs with the 3′-untranslated region of several target mRNAs. As hNcl has been reported to bind the mRNAs encoding for Bcl-2 [11] and Akt its inhibition can result in the destabilization of these two messengers.
Total RNA was isolated. Total RNA was isolated from cultured using Trizol Reagent (Life Technologies, Grand Island, NY, USA) according to the manufacturer instructions and spectrophotometrically quantified […] and assessed by agarose gel electrophoresis. […] To quantify specific mRNAs, real-time PCR assays were conducted using the following primer sets: forward Akt: 5′-TCTACACCCACAGATGACAG-3′; reverse Akt: 5′-CTCAAATGCACCCGAGAAAT-3′; forward Bcl-2: 5′-GGAAGTGAACATTTCGGTGAC-3′; reverse Bcl-2: 5′-CTCCATCAGCTTCCAGACAT-3′; forward 18S 5′-CGATGCTCTTAGCTGAGTGT-3′; reverse 18S 5′-GGTCCAAGAATTTCACCTCT-3′.

Series [1] concerns HeLa cells. The series can be described thus: Protein neo-synthesis in HeLa cells. The series is classed as cell-based, human. The conditions noted are these: 20 μM.
Series [2] has as its system hNcl. The series can be described thus: hNcl distribution in cell compartments (nucleus, cytosol, membrane). The class given is cell-based, human. The conditions noted are these: HeLa cells, 20 μM, 4 h. The procedure: The observed decrement of phosphorylated hNcl (p-hNcl) seems to be attributable to the overall decrease in its levels rather than to a modification of its cellular distribution.
For cytosol and membrane protein extraction, the HeLa cells were seeded at 1.5 × 10^6 in 100 mm culture dishes and incubated with oridonin (5 μM) or compound 12 (20 μM) for 4 h at 37 °C. The cells were harvested in PBS and centrifuged at 4 °C for 5 min at 600× g. Subsequently, the cell pellets were resuspended in lysis buffer (20 mM Tris HCl pH 7.4, 250 mM sucrose, 1 mM dithiothreitol (DTT), protease inhibitors, and 1 mM EDTA in water), sonicated (5 s pulse–9 s pause for 2 min, amplitude 42%) and then centrifuged at 4 °C for 10 min at 5000× g. The obtained supernatants were ultra-centrifuged at 4 °C for 1 h at 100,000× g, and cytosolic extracts were obtained. Each resulting pellet was resuspended in a lysis buffer and ultracentrifuged at 4 °C for 1 h at 100,000× g. The pellets were then resuspended in 250 μL solubilization buffer (20 mM Tris HCl pH 7.4, 1 mM DTT, 1 mM EDTA, and 1% Triton X-100 in water) and left overnight on an orbital shaker at 4 °C. After that, the solution was centrifuged at 4 °C for 30 min at 50,000× g, and membrane proteins were obtained. […]

For series [3], the target named is hNcl (Homo sapiens, UniProt P19338). In words: CETSA-based screening of hNcl interactors in Jurkat cells. The class given is cell-based. The conditions noted are these: 20 μM, 2 h, heated at 55 °C, positive control oridonin. The arrangement: endogenous in cells. The procedure:
Based on previously published results, CETSA experiments were carried out using a Jurkat cell line using the in-cell hNcl denaturation temperature of 55 °C. The efficacy of the different testing compounds in preventing or reducing hNcl aggregation at that temperature was monitored by Western blot (Figure S1B).
Jurkat cells were seeded at 4.0 × 10^5 cells/mL. After 24 h, the cells were treated with diterpenes or the positive control oridonin (final concentration 20 μM) and then incubated for 2 h in a CO2 incubator at 37 °C. Afterward, the cells were collected and centrifuged, and the cell pellets were washed with PBS and gently suspended in 1 mL PBS supplemented with protease inhibitors. Each cell suspension (DMSO, positive control, and treated samples) was heated in a PCR machine (Invitrogen Life Science Technologies, Waltham, MA, USA) at 55 °C for 3 min. The cells were then lysed via freezing/thawing and centrifuged at 4 °C for 20 min at 20,000× g. Subsequently, the proteins were fractionated via SDS-PAGE and analyzed by Western blot. Densitometric analysis of the bands was performed using the ImageJ software. The results were plotted on graphs reporting the ratio between the density measured for each nucleolin band and the density measured for the corresponding Gapdh band. For the histogram plot, the expression level of the nucleolin protein was normalized to the negative control.

The subject of series [4] is HeLa cells. The series can be described thus: MTT-based proliferation assay, HeLa cells. The series is classed as cell-based. The conditions noted are these: Homo sapiens, 48 h, read-out: IC50, inhibition of proliferation (MTT). The procedure:
HeLa cells were seeded at 1 × 10^4 cells/well in 96-well plates. The day after the cells were incubated for 48 h with different concentrations of compounds (10–100) μM. The number of viable cells was quantified by MTT ([3-(4,5-dimethylthiazol-2-yl)-2,5-diphenyl tetrazolium bromide]) assay. Absorption at 550 nm for each well was assessed using a microplate reader (LabSystems, Vienna, VA, USA). Half maximal inhibitory concentration (IC50) values were calculated from cell viability dose–response curves and defined as the concentration resulting in 50% inhibition of cell survival as compared to controls.

The test system of the next series is HaCat cell lines. In words: Toxicity against HaCat cell line. The series is classed as cell-based.

SMILES strings stand for the structures.

Sequence of hNcl (Homo sapiens, UniProt P19338) (P19338 whole entry): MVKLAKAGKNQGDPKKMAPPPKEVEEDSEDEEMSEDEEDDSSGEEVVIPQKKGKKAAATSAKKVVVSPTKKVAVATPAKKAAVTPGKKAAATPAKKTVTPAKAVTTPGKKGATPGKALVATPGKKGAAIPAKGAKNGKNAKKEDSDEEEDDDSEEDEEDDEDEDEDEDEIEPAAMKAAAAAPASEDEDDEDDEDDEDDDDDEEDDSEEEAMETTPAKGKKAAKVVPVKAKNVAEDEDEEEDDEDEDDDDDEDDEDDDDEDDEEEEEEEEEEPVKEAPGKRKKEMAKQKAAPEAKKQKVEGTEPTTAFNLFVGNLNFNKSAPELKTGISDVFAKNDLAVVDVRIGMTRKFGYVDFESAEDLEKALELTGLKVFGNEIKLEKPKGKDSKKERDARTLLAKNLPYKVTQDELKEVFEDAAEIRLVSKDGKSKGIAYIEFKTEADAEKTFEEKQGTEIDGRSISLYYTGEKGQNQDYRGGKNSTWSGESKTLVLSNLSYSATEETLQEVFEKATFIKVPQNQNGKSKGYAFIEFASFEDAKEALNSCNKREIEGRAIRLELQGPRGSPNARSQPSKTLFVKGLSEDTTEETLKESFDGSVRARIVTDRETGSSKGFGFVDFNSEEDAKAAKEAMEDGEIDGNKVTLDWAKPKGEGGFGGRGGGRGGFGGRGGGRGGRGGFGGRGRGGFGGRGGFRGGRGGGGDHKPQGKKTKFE

Turning to `CC1(CO)CCCC2(C)C1C(O)CC13CC4C(CC12)C4(C(=O)O)C3` (stereo not drawn) [compound 12, 6,19-dihydroxy-ent-trachiloban-17-oic acid], the “number of messengers for Akt” value with Akt mRNA is “lowered”. The “protein neo-synthesis vs untreated cells” value in the series with HeLa cells [1] is reported as “no significant differences”. Moreover, in the series on hNcl [2], the “distribution of hNcl in the different cell compartments” value was “did not show dramatic variations”. Further, on hNcl [3], the “protection of hNcl from aggregation in CETSA” value is given as “effect higher than that of the positive control”. In addition, the IC50 in the series with HeLa cells [4] came to 25 µM. In the series on HaCat cell lines, the “toxicity: concentration up to which no toxicity was observed” value is above 100 µM.

The record behind these values is PMC9570042, “Impairment of Nucleolin Activity and Phosphorylation by a Trachylobane Diterpene from Psiadia punctulata in Cancer Cells” (International Journal of Molecular Sciences, 2022).
